Values of other authors as cited in patent US7517540B2, “Cranberry seed oil extract and compositions containing components thereof” (priority 1999, dated 2009).

Tests used:
MDA-MB-435 = conditions: for IC50, inhibition of proliferation of MDA-MB-435: MDA-MB-435 (estrogen receptor-negative), combinations with tamoxifen 1:1; for Inhibition of proliferation, MDA-MB-435 (Table 5): alone, 1:1 or 1:1:1 combinations
MCF-7 = conditions: for IC50, inhibition of proliferation of MCF-7: MCF-7 (estrogen receptor-positive), combinations with tamoxifen 1:1; for Inhibition of proliferation, MCF-7 (Table 5): alone, 1:1 or 1:1:1 combinations
[1] = fed to hypercholesterolemic chicken

IC50, inhibition of proliferation of MDA-MB-435 (MDA-MB-435) [mg/L] | IC50, inhibition of proliferation of MCF-7 (MCF-7) [mg/L] | SMILES | Inhibition of proliferation, MDA-MB-435 (Table 5) (MDA-MB-435) | Inhibition of proliferation, MCF-7 (Table 5) (MCF-7) | Hypocholesterolemic potency compared [1]
90 ± 3 | 6 ± 0.3 | CC(C)=CCC/C(C)=C/CC/C(C)=C/CC[C@]1(C)CCc2c(C)c(O)c(C)c(C)c2O1 [α-Tocotrienol] | – | – | –
>1000 | 125 ± 3 | Cc1c(C)c2c(c(C)c1O)CC[C@@](C)(CCC[C@H](C)CCC[C@H](C)CCCC(C)C)O2 [α-Tocopherol] | – | – | –
90 ± 3 | 2 ± 0.05 | CC(C)=CCC/C(C)=C/CC/C(C)=C/CC[C@]1(C)CCc2cc(O)cc(C)c2O1 [δ-Tocotrienol] | – | – | more potently hypocholesterolemic than α-tocopherol, TRF, or α-tocotrienol
– | – | COc1ccc(-c2cc(=O)c3c(OC)c(OC)c(OC)c(OC)c3o2)cc1 [Tangeretin only, Tangeretin] | 0.5 | 0.4 | –

SMILES | IC50, inhibition of proliferation of MDA-MB-435 (MDA-MB-435) [mg/L] | IC50, inhibition of proliferation of MCF-7 (MCF-7) [mg/L] | Inhibition of proliferation, MDA-MB-435 (Table 5) (MDA-MB-435) | Inhibition of proliferation, MCF-7 (Table 5) (MCF-7) | Hypocholesterolemic potency compared [1]
CC(C)=CCC/C(C)=C/CC/C(C)=C/CC[C@]1(C)CCc2cc(O)c(C)c(C)c2O1 [γ-Tocotrienol] | 30 ± 2 | 2 ± 0.1 | 30 | 2 | more potently hypocholesterolemic than α-tocopherol, TRF, or α-tocotrienol
